Source: patent publication US20210161788A1, “Anti-Blue Light Dermal Topical Composition and Applications Thereof” (Taiwan AC Scientific Inc., priority 2019, published 2021)

Columns and labels:
[1] = Penetration rates of UV, blue light and visual light and shading rate of blue light, UV/blue-light detector; format: physicochemical; conditions: for Penetration rate UV: 380-400 nm; for Penetration rate BL: 405-425 nm; for Penetration rate VL: 520-540 nm; for Shading rate of blue light: VL penetration minus BL penetration
Description: Solutions with different concentrations prepared by terephthalylidene dicamphor sulfonic acid are tested with a UV/blue-light detector (Actor-Mater Co., Ltd.) for penetration rates of ultraviolet (UV), blue light (BL) and visual light (VL). The shading rate of blue light is calculated by the formula as follows:
Shading rate of blue light (%)=penetration rate of visual light−penetration rate of blue light
where wavelength ranges of UV, blue light and visual light tested with a UV/blue-light detector (Actor-Mater Co., Ltd.) are 380-400 nm, 405-425 nm and 520-540 nm, respectively.
The 3% terephthalylidene dicamphor sulfonic acid solution (B) and the 3% rutoside solution (C) are prepared by ingredients as shown in formulas in Table 4. Referring to test modes in Embodiment 1 to Embodiment 3, the anti-blue light effects and the shading rates of blue light for solutions (B) and (C) are tested, respectively.
The synergistic effect of rutoside and terephthalylidene dicamphor sulfonic acid on anti-blue light is explored in this embodiment. Prepared by rutoside and terephthalylidene dicamphor sulfonic acid, the mixed solutions with different concentrations are tested for shading rates of blue light according to the test mode as shown in Embodiment 3.

[2] = system: Human Skin; assay: Evaluation of the effect on human skin by the Janus facial analysis system; format: in vivo; conditions: 3% solution applied on skin
Description: Evaluation method: A subject who has applied the 3% terephthalylidene dicamphor sulfonic acid solution on skin surfaces for seven straight days is tested by the Janus facial analysis system for status change of their skin.

For `CC1(C)C2CCC1(CS(=O)(=O)O)C(=O)C2=Cc1ccc(C=C2C(=O)C3(CS(=O)(=O)O)CCC2C3(C)C)cc1` (stereo in doubt) [terephthalylidene dicamphor sulfonic acid], the “Penetration rate UV” value ([1]; 0.5% (W/W) solution) was 3.00 ± 0.00%, the “Penetration rate BL” value ([1]; 0.5% (W/W) solution) was 87.33 ± 0.58% and the “Penetration rate VL” value ([1]; 0.5% (W/W) solution) was 99.00 ± 0.00%. For the same molecule, the “Shading rate of blue light” value ([1]; 0.5% (W/W) solution) was 11.67 ± 0.58%, the “Penetration rate UV” value ([1]; 1% (W/W) solution) was 1.67 ± 0.58% and the “Penetration rate BL” value ([1]; 1% (W/W) solution) was 77.00 ± 1.00%. The “Penetration rate VL” value ([1]; 1% (W/W) solution) was 98.67 ± 0.58%, the “Shading rate of blue light” value ([1]; 1% (W/W) solution) was 21.67 ± 0.58% and the “Penetration rate UV” value ([1]; 3% (W/W) solution) was 0.00 ± 0.00%. The “Penetration rate BL” value ([1]; 3% (W/W) solution) was 50.00 ± 1.00%, the “Penetration rate VL” value ([1]; 3% (W/W) solution) was 97.33 ± 0.58% and the “Shading rate of blue light” value ([1]; 3% (W/W) solution) was 47.33 ± 0.58%. For the same molecule, the “Penetration rate UV” value ([1]; 5% (W/W) solution) was 0.00 ± 0.00%, the “Penetration rate BL” value ([1]; 5% (W/W) solution) was 42.33 ± 0.58% and the “Penetration rate VL” value ([1]; 5% (W/W) solution) was 97.33 ± 0.58%. For the same molecule, the “Shading rate of blue light” value ([1]; 5% (W/W) solution) was 55.00 ± 1.00%, the “Penetration rate UV” value ([1]; 10% (W/W) solution) was 0.00 ± 0.00% and the “Penetration rate BL” value ([1]; 10% (W/W) solution) was 26.33 ± 1.15%. The “Penetration rate VL” value ([1]; 10% (W/W) solution) was 95.00 ± 1.00%, the “Shading rate of blue light” value ([1]; 10% (W/W) solution) was 68.67 ± 0.58% and the “Penetration rate UV” value ([1]; 20% (W/W) solution) was 0.00 ± 0.00%. For the same molecule, the “Penetration rate BL” value ([1]; 20% (W/W) solution) was 16.00 ± 1.00%, the “Penetration rate VL” value ([1]; 20% (W/W) solution) was 93.00 ± 1.00% and the “Shading rate of blue light” value ([1]; 20% (W/W) solution) was 77.00 ± 0.00%. The “Average shading rate of blue light” value ([1]; content of anti-blue light substances in a solution 1%) was 22%, the “Average shading rate of blue light” value ([1]; content of anti-blue light substances in a solution 3%) was 47% and the “Reduction of the total average of fine wrinkles” value ([2]; after 7 straight days vs before use) was 7%. For the same molecule, the “Count of melanin pigmentations at the forehead” value ([2]; after 7 straight days, before use 42) was 25, the “Count of melanin pigmentations at one side of the face” value ([2]; after 7 straight days, before use 49) was 42 and the “Count of melanin pigmentations at cheeks” value ([2]; after 7 straight days, before use 56) was 44. For the same molecule, the “Fine wrinkles under eyelids” value ([2]; after 7 straight days, before use 57) was 54, the “Total average fine wrinkles” value ([2]; after 7 straight days, before use 82) was 75 and the “Crow's feet” value ([2]; after 7 straight days, before use 100) was 88.
